In patent US12448371B2, “Inhibitor compounds” (Cincera Therapeutics Pty Ltd, priority 2019, dated 2025):

Target: T1, Des1 (h) (Homo sapiens, UniProt O15121)
T1 construct: endogenous in cells; host or cells: parental Jurkat cells
T1 sequence (O15121 1-323): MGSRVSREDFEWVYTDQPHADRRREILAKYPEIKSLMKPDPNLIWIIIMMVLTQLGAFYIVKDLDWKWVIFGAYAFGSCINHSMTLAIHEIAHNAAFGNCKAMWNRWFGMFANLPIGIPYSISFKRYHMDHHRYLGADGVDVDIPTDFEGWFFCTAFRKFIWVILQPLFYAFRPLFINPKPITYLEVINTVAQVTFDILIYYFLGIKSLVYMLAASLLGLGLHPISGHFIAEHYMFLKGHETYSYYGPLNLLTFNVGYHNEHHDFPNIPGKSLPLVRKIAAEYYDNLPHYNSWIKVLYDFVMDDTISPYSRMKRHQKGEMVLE
Assay: Measurement of Dihydroceramide Desaturase-1 (Des-1) activity in intact Jurkat cells labeled with DhCer-C6-NBD (HPLC)
Type: cell-based
Conditions: for IC50: intact Jurkat cells, given as concentration range, or <X / >X if measured at one concentration X only, read-out: Des1 (h) Jurkat IC50
Description: Measurement of Dihydroceramide Desaturase-1 (Des-1) Activity
Compounds were assessed for Des-1 inhibitory activity. Measurement of Des1 activity was performed by HPLC using intact Jurkat cells labeled with DhCer-C6-NBD as described previously (Munoz-Olaya, J. M. et al. ChemMedChem 2008, 3, 946-953) with modifications to enhance sensitivity and reproducibility. These modifications included the use of parental Jurkat cells, 0.5% serum in the culture media, and cell harvesting via centrifugation at 500×g to maximise ceramide extraction. Extracted samples (50 ul) were analysed on a Waters HPLC coupled to a fluorescence detector using a 30 cm C18 reverse-phase column eluted with 1 ml/min 20% H2O and 80% acetonitrile, both with a 0.1% of trifluoroacetic acid. NBD-labelled substrate and product were quantitated with an excitation and emission wavelengths of 465 nm and 530 nm, respectively.

SMILES | IC50 [µM] | also measured
O=C(NO)c1ccc(Nc2nc(-c3ccc(C(F)(F)F)cc3)co2)nn1 [Example 13, N-Hydroxy-6-((4-(4-(trifluoromethyl)phenyl)oxazol-2-yl)amino)pyridazine-3-carboxamide] | 1 to 10 | 
Oc1ccc(Nc2nnc(-c3ccc(OC(F)(F)F)cc3)o2)nc1 [Example 67, 6-((5-(4-(Trifluoromethoxy)phenyl)-1,3,4-oxadiazol-2-yl)amino)pyridin-3-ol] | < 1 | 
N/C(=N\O)c1cnc(Nc2nc(-c3ccc(C(F)(F)F)cc3)no2)cn1 [Example 83, N′-Hydroxy-5-((3-(4-(trifluoromethyl)phenyl)-1,2,4-oxadiazol-5-yl)amino)pyrazine-2-carboximidamide] | < 1 | 
CC(C)N(O)C(=O)c1ccc(Nc2ncc(-c3ccc(C(F)(F)F)cc3)o2)cn1 [Example 34, N-Hydroxy-N-isopropyl-5-((5-(4-(trifluoromethyl)phenyl)oxazol-2-yl)amino)picolinamide] | > 1 | inhibition at 1 µM (Jurkat cells): 23%
N=C(NO)c1ccc(Nc2ncc(-c3ccc(F)c(F)c3)o2)nn1 [Example 48, 6-((5-(3,4-Difluorophenyl)oxazol-2-yl)amino)-N′-hydroxypyridazine-3-carboximidamide] | 0.001 to 0.01 | 
O=C(NC[C@@H](O)CO)c1ccc(Nc2ncc(-c3ccc(F)c(F)c3)o2)cn1 [Compound 97, (R)-5-((5-(3,4-Difluorophenyl)oxazol-2-yl)amino)-N-(2,3-dihydroxypropyl)picolinamide] |  | % inhibition of Des1 at 0.1 μM (Jurkat cells, 0.1 μM): 55%
O=C(NO)c1ccc(Nc2ncc(-c3ccc(C(F)(F)F)cc3)o2)nn1 [Example 11, N-Hydroxy-6-((5-[4-(trifluoromethyl)phenyl]-1,3-oxazol-2-yl)amino)pyridazine-3-carboxamide] | 0.1 to 1 | 
Cn1nc(Nc2cnc(/C(N)=N/O)cn2)cc1-c1ccc(C(F)(F)F)cn1 [Compound 110, N′-Hydroxy-5-((1-methyl-5-(5-(trifluoromethyl)pyridin-2-yl)-1H-pyrazol-3-yl)amino)pyrazine-2-carboximidamide] | > 1 | inhibition at 1 µM (Jurkat cells): 31%
O=C(NC[C@@H](O)CO)c1ccc(Nc2ncc(-c3ccc(C(F)(F)F)c(F)c3)o2)cn1 [Example 44, (R)—N-(2,3-Dihydroxypropyl)-5-((5-(3-fluoro-4-(trifluoromethyl)phenyl)oxazol-2-yl)amino)picolinamide] | 0.001 to 0.01 | 
CN(O)S(=O)(=O)c1ccc(Nc2ncc(-c3ccc(C(F)(F)F)cc3)o2)cn1 [Example 15, N-Hydroxy-N-methyl-5-((5-[4-(trifluoromethyl)phenyl]-1,3-oxazol-2-yl)amino) pyridine-2-sulfonamide] | > 1 | inhibition at 1 µM (Jurkat cells): 46%
N/C(=N\O)c1ccc(Nc2ncc(-c3ccc(C(F)(F)F)cn3)o2)nn1 [Example 61, N′-hydroxy-6-((5-(5-(trifluoromethyl)pyridin-2-yl)oxazol-2-yl)amino)pyridazine-3-carboximidamide] | < 0.1 | 
N/C(=N\O)c1ccc(Nc2nc(-c3ccc(Cl)cc3)no2)cn1 [Example 78, 5-((3-(4-chlorophenyl)-1,2,4-oxadiazol-5-yl)amino)-N′-hydroxypicolinimidamide] | < 1 | 
N=C(NO)c1ccc(Nc2ncc(-c3ccc(F)cn3)o2)nn1 [Example 49, 6-((5-(5-Fluoropyridin-2-yl)oxazol-2-yl)amino)-N′-hydroxypyridazine-3-carboximidamide] | < 0.1 | 
Cc1nc(Nc2cnc(/C(N)=N/O)c(O)c2)oc1-c1ccc(C(F)(F)F)cc1 [Example 39, N′,3-Dihydroxy-5-((4-methyl-5-(4-(trifluoromethyl)phenyl)oxazol-2-yl)amino)picolinimidamide] | < 1 | 
CN(O)C(=O)c1ncc(Nc2ncc(-c3ccc(C(F)(F)F)cc3)o2)cc1O [Example 28, N,3-Dihydroxy-N-methyl-5-((5-(4-(trifluoromethyl)phenyl)oxazol-2-yl)amino)picolinamide] | < 1 | 
Cn1nc(-c2ccc(C(F)(F)F)cn2)cc1Nc1ccc(/C(N)=N\O)nc1 [Example 76, N′-Hydroxy-5-((1-methyl-3-(5-(trifluoromethyl)pyridin-2-yl)-1H-pyrazol-5-yl)amino)picolinimidamide] | > 1 | inhibition at 1 µM (Jurkat cells): 8%
N/C(=N\O)c1ncc(Nc2ncc(-c3ccc(C(F)(F)F)cn3)o2)cn1 [Example 58, N′-Hydroxy-5-((5-(5-(trifluoromethyl)pyridin-2-yl)oxazol-2-yl)amino)pyrimidine-2-carboximidamide] | > 1 | inhibition at 1 µM (Jurkat cells): 40%
N/C(=N\O)c1ncc(Nc2ncc(-c3ccc(C(F)(F)F)c(F)c3)o2)cc1O [Example 43, 5-((5-(3-Fluoro-4-(trifluoromethyl)phenyl)oxazol-2-yl)amino)-N′,3-dihydroxypicolinimidamide] | 0.001 to 0.01 | 
O=C(NC[C@@H](O)CO)c1ccc(Nc2ncn(-c3ccc(C(F)(F)F)cc3)n2)cn1 [Example 38, (R)—N-(2,3-Dihydroxypropyl)-5-((1-(4-(trifluoromethyl)phenyl)-1H-1,2,4-triazol-3-yl)amino)picolinamide] | > 1 | inhibition at 1 µM (Jurkat cells): 30%
N/C(=N/O)c1ccc(Nc2ncc(-c3ccc(C4CC4)cn3)o2)cn1 [Example 62, 5-((5-(5-Cyclopropylpyridin-2-yl)oxazol-2-yl)amino)-N′-hydroxypicolinimidamide] | > 1 | inhibition at 1 µM (Jurkat cells): 42%
Oc1ccc(Nc2ncc(-c3ccc(C(F)(F)F)cc3)o2)nc1 [Example 18, 6-((5-(4-(Trifluoromethyl)phenyl)oxazol-2-yl)amino)pyridin-3-ol] | < 1 | 
N/C(=N\O)c1ccc(Nc2ncc(-c3ccc(C(F)(F)F)c(F)c3)o2)cn1 [Example 45, 5-((5-(3-Fluoro-4-(trifluoromethyl)phenyl)oxazol-2-yl)amino)-N′-hydroxypicolinimidamide] | < 0.1 | 
O=C(NO)c1ncc(Nc2nc(-c3ccc(Cl)cc3)cs2)cn1 [Example 9, 5-([4-(4-Chlorophenyl)-1,3-thiazol-2-yl]amino)-N-hydroxypyrimidine-2-carboxamide] | > 10 | % inhibition of Des1 at 10 μM (Jurkat cells): 26%
O=c1cc(Nc2nnc(-c3ccc(C(F)(F)F)cc3)o2)ccn1O [Example 7, 1-Hydroxy-4-((5-[4-(trifluoromethyl)phenyl]-1,3,4-oxadiazol-2-yl)amino)-1,2-dihydropyridin-2-one] | < 1 | 
N/C(=N\O)c1cnc(Nc2nc(-c3ccc(Cl)cc3)no2)cn1 [Example 79, 5-((3-(4-chlorophenyl)-1,2,4-oxadiazol-5-yl)amino)-N′-hydroxypyrazine-2-carboximidamide] | < 1 | 
O=C(c1ccc(Nc2ncc(-c3ccc(C(F)(F)F)cc3)o2)cn1)N(O)CCO [Example 22, N-Hydroxy-N-(2-hydroxyethyl)-5-((5-(4-(trifluoromethyl)phenyl)oxazol-2-yl)amino)picolinamide] |  | % inhibition of Des1 at 10 μM (Jurkat cells): 81%
Cc1cc(Nc2ncc(-c3ccc(C(F)(F)F)cc3)o2)cnc1C(=O)N(C)O [Example 21, N-Hydroxy-N,3-dimethyl-5-((5-(4-(trifluoromethyl)phenyl)oxazol-2-yl)amino)picolinamide] | > 1 | inhibition at 1 µM (Jurkat cells): 38%
N=C(NO)c1ccc(Nc2ncc(-c3ccc(F)cc3)o2)nn1 [Example 47, 6-((5-(4-Fluorophenyl)oxazol-2-yl)amino)-N′-hydroxypyridazine-3-carboximidamide] | < 0.1 | 
